Legend:
[1] = system: nerve cells induced from neurospheres derived from 201B7 cells; assay: Effect of RK-682 on neurite outgrowth (Experimental Example 10); type: cell-based, human; conditions: 201B7 neurospheres; 20 μM RK-682, 24 hours, differentiated 14 days; vs control
Procedure: (§1) Neurospheres derived from 201B7 cells, which are cells of a human iPS cell line, were prepared in the same manner as in Experimental Example 1. Subsequently, the neurospheres were cultured for 24 hours in the presence of RK-682 at a final concentration of 20 μM. In addition, as a control, a group to which RK-682 was not added was also prepared.
(§2) Subsequently, each neurosphere was seeded on a 48-well chamber slide (IWAKI & CO., LTD.) coated with poly-L-ornithine/fibronectin, cultured for 14 days in a culture medium containing no growth factor at 37° C. in an environment of 95% air and 5% CO2, and differentiated into nerve cells.
Subsequently, each of the obtained nerve cells was fixed with 4% paraformaldehyde in 0.1 M PBS, and each of βIII-tubulin which is a nerve cell marker, and the Tau protein which is frequently distributed in axons, was immunostained, and the length of the neurite was measured.

[2] = target: T1, CDC25B (Homo sapiens, UniProt P30305); conditions: "it is said"; cited from earlier work
T1 sequence (P30305 1-580): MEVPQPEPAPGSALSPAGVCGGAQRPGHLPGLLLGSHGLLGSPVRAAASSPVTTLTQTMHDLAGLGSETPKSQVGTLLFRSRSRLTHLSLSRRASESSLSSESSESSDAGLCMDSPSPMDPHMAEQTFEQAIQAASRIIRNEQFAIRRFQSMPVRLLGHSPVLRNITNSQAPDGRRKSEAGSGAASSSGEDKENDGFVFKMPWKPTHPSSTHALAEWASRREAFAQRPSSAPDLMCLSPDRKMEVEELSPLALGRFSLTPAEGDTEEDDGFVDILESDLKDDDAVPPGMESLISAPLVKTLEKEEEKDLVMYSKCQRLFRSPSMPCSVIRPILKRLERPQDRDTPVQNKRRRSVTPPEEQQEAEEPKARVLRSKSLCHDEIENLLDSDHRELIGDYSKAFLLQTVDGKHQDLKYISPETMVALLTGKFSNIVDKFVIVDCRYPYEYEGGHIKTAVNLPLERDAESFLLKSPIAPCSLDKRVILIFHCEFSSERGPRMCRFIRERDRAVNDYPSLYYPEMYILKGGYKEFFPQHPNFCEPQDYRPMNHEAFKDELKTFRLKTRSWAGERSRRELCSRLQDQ

[3] = system: phosphorylated p38; assay: Effect of RK-682 on phosphorylation of p38 (Experimental Example 9); type: cell-based, human; conditions: 201B7 neurospheres; 20 μM RK-682, 24 hours; vs control
Procedure: as §1, with “prepared. Subsequently, each neurosphere was fixed with paraformaldehyde and subjected to immunostaining of each of the phosphorylated p38 and the phosphorylated CDC25B.” for “prepared.”

[4] = system: phosphorylated CDC25B; assay: Effect of RK-682 on phosphorylation of CDC25B (Experimental Example 9); type: cell-based, human; conditions: 201B7 neurospheres; 20 μM RK-682, 24 hours; vs control
Procedure: as §1, with “prepared. Subsequently, each neurosphere was fixed with paraformaldehyde and subjected to immunostaining of each of the phosphorylated p38 and the phosphorylated CDC25B.” for “prepared.”

[5] = system: nerve cells induced from neurospheres derived from 201B7 cells; assay: Effect of addition of SB203580 on neurite outgrowth (Experimental Example 7); type: cell-based, human; conditions: differentiated 14 days
Procedure: (§3) Neurospheres derived from 201B7 cells, which are cells of a human iPS cell line, were prepared in the same manner as in Experimental Example 1. Subsequently, each neurosphere was cultured for 24 hours in the presence of each of DAPT and Compound 34. DAPT and Compound 34 were used at the same concentrations as in Experimental Example 1. In addition, in this case, SB203580 (CAS number: 152121-47-6), which is a p38 inhibitor, was added to the culture medium at a final concentration of 20 μM. In addition, a group to which SB203580 had not been added was also prepared as a control.
as §2
Subsequently, each of the obtained nerve cells was fixed with 4% paraformaldehyde in 0.1 M PBS, and each of βIII-tubulin which is a nerve cell marker, and the Tau protein which is frequently distributed in axons, was immunostained, and the length of the neurite was measured. […]

[6] = system: phosphorylated CDC25B; assay: Effect of addition of SB203580 on phosphorylation of CDC25B (Experimental Example 6); type: cell-based, human
Procedure: as §3
Subsequently, each neurosphere was fixed with paraformaldehyde and subjected to immunostaining of phosphorylated CDC25B.
In FIG. 12(c), “DAPT” indicates it is the result obtained from the control into which the DAPT treatment has been carried out in the absence of SB203580, and “DAPT+SB203580” indicates it is the result obtained by carrying out the DAPT treatment in the presence of SB203580.

[7] = 20 μM SB203580 during Compound 34 treatment (1 μM, 24 hours), vs without SB203580
[8] = 20 μM SB203580 during DAPT treatment (10 μM, 24 hours), vs DAPT without SB203580

Compound | neurite outgrowth (neurite length), βIII-tubulin immunostaining [1] | neurite outgrowth, Tau protein immunostaining [1] | dephosphorylation inhibitory effect on CDC25B [2] | amount of phosphorylated p38 in the neurosphere [3] | amount of phosphorylated CDC25B in the neurosphere [4] | neurite outgrowth (neurite length) [5, 7] | neurite outgrowth (neurite length) [5, 8] | increase in the amount of phosphorylated CDC25B in the neurosphere [6, 7] | increase in the amount of phosphorylated CDC25B in the neurosphere [6, 8]
CCCCCCCCCCCCCCCC(=O)C1=C(O)[C@@H](CO)OC1=O [RK-682] | significantly promoted | significantly promoted | does not have a dephosphorylation inhibitory effect | significantly increased | significantly increased | – | – | – | –
C[S+]([O-])c1ccc(-c2nc(-c3ccncc3)c(-c3ccc(F)cc3)[nH]2)cc1 (stereo not drawn) [SB203580] | – | – | – | – | – | significantly suppressed | significantly suppressed | significantly suppressed | significantly suppressed

— patent US20240252546A1, “NEURITE OUTGROWTH PROMOTION KIT AND USE THEREFOR” (KEIO UNIVERSITY, priority 2021, published 2024)
